# Assay results published in patent US8420657B2 (Novartis AG, priority 2008, dated 2013).
# Like-named read-outs stand apart in the source and are kept apart here.
# Tests used:
# GST-JAK2(808-1132) = target: T1, GST-JAK2(808-1132) (Homo sapiens, UniProt O60674); test: JAK2 kinase assay (Caliper mobility shift, LabChip 3000); type: biochemical
# T1 construct: GST-JAK2(808-1132); purchased Invitrogen (Carlsbad, USA) #4288
# Summary of the method: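 Eight-point compound series (final 10–0.003 μM) tested on purchased GST-JAK2 kinase domain (808-1132). Peptide FITC-JAK3tide plus ATP reacted 60 min, 30 °C, then quenched with EDTA; turnover from charge-based separation of substrate and product.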
# PDGFRalpha = target: T2, PDGFRalpha (Homo sapiens, UniProt P16234); test: PDGFRalpha LanthaScreen TR-FRET kinase phosphorylation assay; type: biochemical; settings: recombinant kinase domain, read-out: PDGFRa/IC50
# T2 construct: using the recombinant domains of cMet, cKit, ALK and PDGFRalpha kinases
# T2 sequence (P16234 593-954 limits assumed, species assumed): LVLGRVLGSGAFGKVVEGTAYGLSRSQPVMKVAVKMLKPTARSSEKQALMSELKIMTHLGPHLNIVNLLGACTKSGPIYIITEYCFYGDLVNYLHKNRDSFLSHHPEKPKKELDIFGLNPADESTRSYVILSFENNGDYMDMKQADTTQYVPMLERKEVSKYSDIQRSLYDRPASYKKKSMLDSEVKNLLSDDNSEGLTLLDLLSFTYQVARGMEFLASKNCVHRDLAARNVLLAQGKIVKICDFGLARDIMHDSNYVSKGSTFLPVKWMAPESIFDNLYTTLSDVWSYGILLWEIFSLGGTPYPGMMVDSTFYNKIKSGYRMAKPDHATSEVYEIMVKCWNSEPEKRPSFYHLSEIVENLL
# Procedure: (§1) The compounds are assayed in an antibody based kinase phosphorylation assay using the recombinant domains of cMet, cKit, ALK and PDGFRalpha kinases and a generic phospho-tyrosine peptide substrate. LanthaScreen™ is the detection of Time-Resolved Fluorescence Resonance Energy Transfer (TR-FRET) using lanthanide chelates to measure interactions between various binding partners. In a TR-FRET kinase assay, a long-lifetime lanthanide donor species is conjugated to an antibody that specifically binds to a phosphorylated product of a kinase reaction that is labeled with a suitable acceptor fluorophore. This antibody-mediated interaction brings the lanthanide donor and the acceptor into proximity such that resonance energy transfer can take place, resulting in a detectible increase in FRET. The LanthaScreen is run at ambient temperature and terminated by the addition of stop solution, followed by Tb-labeled P-20 antibody. After incubating in the dark, the plates are transferred to a fluorescence reader for counting. The effect of compound on the enzymatic activity is in all assays obtained from the linear progress curves and determined from one reading (end point measurement).
# cKit = target: T3, cKit (Homo sapiens, UniProt P10721); test: cKit LanthaScreen TR-FRET kinase phosphorylation assay; type: biochemical; settings: recombinant kinase domain
# T3 construct: using the recombinant domains of cMet, cKit, ALK and PDGFRalpha kinases
# T3 sequence (P10721 589-937 limits assumed): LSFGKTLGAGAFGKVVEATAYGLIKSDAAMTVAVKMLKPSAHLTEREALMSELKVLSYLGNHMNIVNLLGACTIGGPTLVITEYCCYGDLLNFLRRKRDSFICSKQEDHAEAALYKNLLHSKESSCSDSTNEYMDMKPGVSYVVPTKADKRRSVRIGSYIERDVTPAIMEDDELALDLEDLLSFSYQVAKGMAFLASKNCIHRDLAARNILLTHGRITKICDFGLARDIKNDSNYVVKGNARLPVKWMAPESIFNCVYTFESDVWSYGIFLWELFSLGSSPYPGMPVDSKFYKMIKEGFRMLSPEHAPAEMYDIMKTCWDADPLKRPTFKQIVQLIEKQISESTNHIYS
# Procedure: as §1
# ALK = target: T4, ALK (Homo sapiens, UniProt Q9UM73); test: ALK LanthaScreen TR-FRET kinase phosphorylation assay; type: biochemical; settings: recombinant kinase domain
# T4 construct: using the recombinant domains of cMet, cKit, ALK and PDGFRalpha kinases
# T4 sequence (Q9UM73 1116-1392 limits assumed, species assumed): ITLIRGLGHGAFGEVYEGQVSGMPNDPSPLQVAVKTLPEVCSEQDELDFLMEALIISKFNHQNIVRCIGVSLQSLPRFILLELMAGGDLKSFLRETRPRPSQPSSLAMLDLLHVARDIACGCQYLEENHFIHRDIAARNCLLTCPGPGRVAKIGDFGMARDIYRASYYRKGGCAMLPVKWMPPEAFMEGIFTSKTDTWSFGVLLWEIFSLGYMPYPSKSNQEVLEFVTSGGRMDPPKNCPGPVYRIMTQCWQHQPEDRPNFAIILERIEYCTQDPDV
# Procedure: as §1
# cMet = target: T5, cMet (Homo sapiens, UniProt P08581); test: cMet LanthaScreen TR-FRET kinase phosphorylation assay; type: biochemical; settings: recombinant kinase domain
# T5 construct: using the recombinant domains of cMet, cKit, ALK and PDGFRalpha kinases
# T5 sequence (P08581 1078-1345 limits assumed): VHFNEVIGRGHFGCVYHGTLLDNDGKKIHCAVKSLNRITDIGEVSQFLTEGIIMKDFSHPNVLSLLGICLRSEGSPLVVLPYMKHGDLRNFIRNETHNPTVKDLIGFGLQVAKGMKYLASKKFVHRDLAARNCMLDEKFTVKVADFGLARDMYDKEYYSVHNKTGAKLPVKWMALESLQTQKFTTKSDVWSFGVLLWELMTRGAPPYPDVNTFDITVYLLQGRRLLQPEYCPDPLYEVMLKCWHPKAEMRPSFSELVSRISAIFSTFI
# Procedure: as §1
# [1] = system: JAK2-dependent nuclear translocation of STAT5-GFP in U-2 OS osteosarcoma cells; test: STAT5 nuclear translocation assay (Cellomics), rhEpo stimulated U-2 OS STAT5-GFP cells; type: cell-based; settings: Homo sapiens, U2OS; STAT5 translocation pathway
# Summary of the method: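 U-2 OS cells stably expressing STAT5a-GFP and EpoR pre-treated with compound (final 10 μM to 0.003 μM, 0.1% DMSO) for 30 min at 37° C., then stimulated 1 h with 5 U/ml rhEpo. Nuclear-cytoplasmic GFP differential quantified by automated imaging (≥1000 cells/well, Hoechst nuclear mask). IC50 from % translocation normalized to untreated and DMSO-stimulated controls.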
# [2] = system: JAK1/JAK2-dependent nuclear translocation of STAT1-GFP in HT1080 fibrosarcoma cells; test: STAT1 nuclear translocation assay (Cellomics), IFN-γ stimulated HT1080 STAT1-GFP cells; type: cell-based; settings: Homo sapiens, HT-1080, STAT1 translocation pathway
# Summary of the method: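 IC50 derived from percent nuclear STAT1-GFP translocation, computed from nuclear minus cytoplasmic GFP intensity against untreated baseline and DMSO-stimulated control. Stable HT1080 STAT1-GFP cells received compound (0.003–10 μM, 0.1% DMSO) 30 min ahead of a 2 h 100 ng/ml IFN-γ stimulus, then fixation and Hoechst nuclear masking.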
# T1 sequence (O60674 808-1132): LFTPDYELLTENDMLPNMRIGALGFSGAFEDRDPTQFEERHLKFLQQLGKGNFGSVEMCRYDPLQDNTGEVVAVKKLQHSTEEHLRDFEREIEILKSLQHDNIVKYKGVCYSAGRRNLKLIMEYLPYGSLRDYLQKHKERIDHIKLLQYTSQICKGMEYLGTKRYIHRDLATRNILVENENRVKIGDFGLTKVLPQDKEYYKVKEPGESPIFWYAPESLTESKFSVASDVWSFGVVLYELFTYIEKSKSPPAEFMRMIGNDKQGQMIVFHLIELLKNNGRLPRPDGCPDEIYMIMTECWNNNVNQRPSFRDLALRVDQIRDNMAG
SMILES,IC50 (GST-JAK2(808-1132)),IC50 [1],further results
"OCCN1CCOC[C@@H]1c1ccc(Nc2ncc3ccn(-c4cc(F)c(CN5CCOCC5)c(F)c4)c3n2)cc1 [Example 521, 2-((S)-3-{4-[7-(3,5-difluoro-4-morpholin-4-ylmethyl-phenyl)-7H-pyrrolo[2,3-d]pyrimidin-2-ylamino]-phenyl}-morpholin-4-yl)-ethanol]",≤ 3 nM,,IC50 (GST-JAK2(808-1132); Table 3): < 3 nM; IC50 (PDGFRalpha): 2800 nM; IC50 (cKit): 2900 nM; IC50 (ALK): > 10000 nM; IC50 (cMet): 3500 nM
"C[C@@H]1CN(Cc2c(F)cc(-n3ccc4cnc(Nc5ccc(N6CCN(C)CC6)nc5)nc43)cc2F)C[C@H](C)O1 [Example 447, {7-[4-(cis-2,6-dimethyl-morpholin-4-ylmethyl)-3,5-difluoro-phenyl]-7H-pyrrolo[2,3-d]pyrimidin-2-yl}-[6-(4-methyl-piperazin-1-yl)-pyridin-3-yl]-amine]",9.6 nM,11.8 nM,IC50 [2]: 105 nM
"CN1CCN(c2ccc(Nc3ncc4ccn(-c5ccc(C#N)cc5)c4n3)cn2)CC1 [Example 278, 4-{2-[6-(4-Methyl-piperazin-1-yl)-pyridin-3-ylamino]-pyrrolo[2,3-d]pyrimidin-7-yl}-benzonitrile]",11 nM,,IC50 (GST-JAK2(808-1132); Table 3): 11 nM; IC50 (PDGFRalpha): 2650 nM; IC50 (cKit): 1350 nM; IC50 (ALK): > 10000 nM; IC50 (cMet): 1400 nM
"Cc1ccc(Nc2ncc3ccn(-c4cc(F)c(CN5CCS(=O)(=O)CC5)c(F)c4)c3n2)cc1CN1CCN(C)C(=O)C1 [Example 422, 4-(5-{7-[4-(1,1-Dioxido-thiomorpholin-4-ylmethyl)-3,5-difluoro-phenyl]-7H-pyrrolo[2,3-d]pyrimidin-2-ylamino}-2-methyl-benzyl)-1-methyl-piperazin-2-one]",≤ 3 nM,5.7 nM,
"Cc1ccc(Nc2ncc3ccn(-c4cc(F)c(CN5CCS(=O)(=O)CC5)c(F)c4)c3n2)cc1CN1CCC(O)C1 (racemic) [Example 425, 1-(5-{7-[4-(1,1-Dioxido-thiomorpholin-4-ylmethyl)-3,5-difluoro-phenyl]-7H-pyrrolo[2,3-d]pyrimidin-2-ylamino}-2-methyl-benzyl)-pyrrolidin-3-ol]",≤ 3 nM,3.6 nM,
"Cc1ccc(Nc2ncc3ccn(-c4cc(F)c(CN5CCOCC5)c(F)c4)c3n2)cc1CN1[C@H]2CC[C@@H]1CC2 [Example 436, [3-(7-Aza-bicyclo[2.2.1]hept-7-ylmethyl)-4-methyl-phenyl]-[7-(3,5-difluoro-4-morpholin-4-ylmethyl-phenyl)-7H-pyrrolo[2,3-d]pyrimidin-2-yl]-amine]",≤ 3 nM,6.1 nM,
"Fc1cc(-n2ccc3cnc(Nc4ccc(CN5CCOCC5)nc4)nc32)cc(F)c1CN1CCOCC1 [Example 480, [7-(3,5-Difluoro-4-morpholin-4-ylmethyl-phenyl)-7H-pyrrolo[2,3-d]pyrimidin-2-yl]-(6-morpholin-4-ylmethyl-pyridin-3-yl)-amine]",≤ 3 nM,71 nM,
"Cc1ccc(Nc2ncc3ccn(-c4cc(F)c(CN5CCOCC5)c(F)c4)c3n2)cc1CN1CCC(O)C1 (racemic) [Example 411, 1-{5-[7-(3,5-Difluoro-4-morpholin-4-ylmethyl-phenyl)-7H-pyrrolo[2,3-d]pyrimidin-2-ylamino]-2-methyl-benzyl}-pyrrolidin-3-ol]",≤ 3 nM,2.6 nM,
"Cc1ccc(Nc2ncc3ccn(-c4cc(F)c(CN5CCS(=O)(=O)CC5)c(F)c4)c3n2)cc1CN1CC(O)C1 [Example 423, 1-(5-{7-[4-(1,1-Dioxido-thiomorpholin-4-ylmethyl)-3,5-difluoro-phenyl]-7H-pyrrolo[2,3-d]pyrimidin-2-ylamino}-2-methyl-benzyl)-azetidin-3-ol]",≤ 3 nM,5.9 nM,
"C[C@@H]1CN(c2ccc(Nc3ncc4ccn(-c5cc(F)cc(F)c5)c4n3)cn2)C[C@H](C)N1 [Example 453, [7-(3,5-Difluoro-phenyl)-7H-pyrrolo[2,3-d]pyrimidin-2-yl]-[6-(cis-3,5-dimethyl-piperazin-1-yl)-pyridin-3-yl]-amine]",4.1 nM,36 nM,
"Cc1ccc(Nc2ncc3ccn(-c4ccc(S(=O)(=O)NC(C)(C)C)cc4)c3n2)cc1CN1C[C@@H](C)N[C@@H](C)C1 [Example 387, N-tert-Butyl-4-{2-[3-(cis-3,5-dimethyl-piperazin-1-ylmethyl)-4-methyl-phenylamino]-pyrrolo[2,3-d]pyrimidin-7-yl}-benzenesulfonamide]",9.6 nM,45.5 nM,
"COC1CN(Cc2c(F)cc(-n3ccc4cnc(Nc5ccc(C)c(CN6CCNCC6)c5)nc43)cc2F)C1 [Example 482, {7-[3,5-Difluoro-4-(3-methoxy-azetidin-1-ylmethyl)-phenyl]-7H-pyrrolo[2,3-d]pyrimidin-2-yl}-(4-methyl-3-piperazin-1-ylmethyl-phenyl)-amine]",≤ 3 nM,150 nM,
"C[C@@H]1CN(c2ccc(Nc3ncc4ccn(-c5cc(F)c(CN6CCOC7(COC7)C6)c(F)c5)c4n3)cn2)C[C@H](C)N1 [Example 360, [6-(cis-3,5-Dimethyl-piperazin-1-yl)-pyridin-3-yl]-{7-[4-(2,5-dioxa-8-aza-spiro[3,5]non-8-ylmethyl)-3,5-difluoro-phenyl]-7H-pyrrolo[2,3-d]pyrimidin-2-yl}-amine]",3.3 nM,7.2 nM,
"C[C@@H]1CN(Cc2ccc(Nc3ncc4ccn(-c5ccc(S(=O)(=O)NC(C)(C)C)cc5)c4n3)cc2)C[C@H](C)N1 [Example 464, N-tert-Butyl-4-{2-[4-(cis-3,5-dimethyl-piperazin-1-ylmethyl)-phenylamino]-pyrrolo[2,3-d]pyrimidin-7-yl}-benzenesulfonamide]",≤ 3 nM,59 nM,
"COCCOc1ccc(Nc2ncc3ccn(-c4cc(F)c(CN5CCOCC5)c(F)c4)c3n2)cn1 [Example 516, [7-(3,5-Difluoro-4-morpholin-4-ylmethyl-phenyl)-7H-pyrrolo[2,3-d]pyrimidin-2-yl]-[6-(2-methoxy-ethoxy)-pyridin-3-yl]-amine]",6.4 nM,119 nM,
"C[C@@H]1CN(Cc2ccc(Nc3ncc4ccn(-c5cc(F)c(CN6CCCC6=O)c(F)c5)c4n3)cc2)C[C@H](C)N1 [Example 462, 1-(4-{2-[4-(cis-3,5-Dimethyl-piperazin-1-ylmethyl)-phenylamino]-pyrrolo[2,3-d]pyrimidin-7-yl}-2,6-difluoro-benzyl)-pyrrolidin-2-one]",≤ 3 nM,51 nM,
"O=C1CNCCN1c1ccc(Nc2ncc3ccn(-c4cc(F)c(CN5CCOCC5)c(F)c4)c3n2)cn1 [Example 470, 1-{5-[7-(3,5-Difluoro-4-morpholin-4-ylmethyl-phenyl)-7H-pyrrolo[2,3-d]pyrimidin-2-ylamino]-pyridin-2-yl}-piperazin-2-one]",61 nM,17 nM,
"Fc1cc(-n2ccc3cnc(Nc4ccc([C@H]5CNCCN5)cc4)nc32)cc(F)c1CN1CCOCC1 [Example 474, [7-(3,5-Difluoro-4-morpholin-4-ylmethyl-phenyl)-7H-pyrrolo[2,3-d]pyrimidin-2-yl]-((S)-4-piperazin-2-yl-phenyl)-amine]",≤ 3 nM,8.6 nM,
"Fc1cc(-n2ccc3cnc(Nc4ccc(OCCN5CCOCC5)nc4)nc32)cc(F)c1CN1CCOCC1 [Example 513, [7-(3,5-Difluoro-4-morpholin-4-ylmethyl-phenyl)-7H-pyrrolo[2,3-d]pyrimidin-2-yl]-[6-(2-morpholin-4-yl-ethoxy)-pyridin-3-yl]-amine]",4.6 nM,116 nM,
"Fc1cc(-n2ccc3cnc(Nc4ccc(Cl)c(CN5CCNCC5)c4)nc32)cc(F)c1CN1CCOCC1 [Example 401, (4-Chloro-3-piperazin-1-ylmethyl-phenyl)-[7-(3,5-difluoro-4-morpholin-4-ylmethyl-phenyl)-7H-pyrrolo[2,3-d]pyrimidin-2-yl]-amine]",7 nM,138 nM,
"Cc1cc(Nc2ncc3ccn(-c4cc(F)c(CN5CCS(=O)(=O)CC5)c(F)c4)c3n2)cc(C)c1OCCN1CCOCC1 [Example 432, [3,5-Dimethyl-4-(2-morpholin-4-yl-ethoxy)-phenyl]-{7-[4-(1,1-dioxido-thiomorpholin-4-ylmethyl)-3,5-difluoro-phenyl]-7H-pyrrolo[2,3-d]pyrimidin-2-yl}-amine]",≤ 3 nM,0.4 nM,
